Laboratory results from patent USRE48077E1, “Methods of treating ototoxicity” (Anida Pharma Inc., priority 2013, dated 2020).
Where two headings read alike, the source gives them in different places.

What was measured:
Type in all cases: cell-based, mouse
[1] = tested on: TNFα; assay: Immunofluorescence staining of stress and inflammatory markers: TNFα
Method: (§1) The cultures were kept at 33° C. in an incubator with 10% CO2. Detection of stress and inflammatory markers in UB/OC-1 cells was performed by immunofluorescence staining. UB/OC-1 cells were first plated in a 12 well plate. […] After the treatment, the cells were fixed with 4% paraformaldehyde (Sigma, St. Louis, Mo.), followed by washing once with phosphate buffered saline (PBS). Coverslips were then incubated with solution A—5% donkey serum (Jackson Immuno Laboratories, West Grove, Pa.) and 0.5% Triton-X (Sigma, St. Louis, Mo.) in PBS for 30 min at room temperature. Double immunostaining for different markers NOX3, iNOS, TRPV1 or TNF-α (1:300 dilution) in solution A was performed overnight at 4° C. Secondary antibody mix was then added and incubated for 1 h at 37° C. After 3 washes with PBS and two washes with fresh distilled water the coverslips were mounted on glass slides using Vectashield mounting medium containing DAPI (Vector Laboratories, Inc. Burlingame, Calif.) for nuclear staining, before imaging under an LEICA confocal microscope (Buffalo Grove, Ill.).

[2] = tested on: UB/OC-1 cells; assay: Cell survival by FITC-AnnexinV/propidium iodide apoptosis detection, flow cytometry; conditions: for viability at 0.001 µM / viability at 0.01 µM / viability at 0.1 µM: Mus musculus
Method: (§2) The cultures were kept at 33° C. in an incubator with 10% CO2. Cell survival after NPD1 treatment was also analyzed in UB/OC-1 cells in the presence or absence of damage. Specifically, cell death via apoptosis was determined by using FITC-AnnexinV Apoptosis detection kit (BD Pharmingen, San Diego, Calif., USA) and quantified by flow cytometry. In brief, 3,500 UB/OC-1 cells per well were seeded into a 96-well plate. […] At the end of the treatment time, UB/OC-1 cells were washed once with phosphate buffered saline (PBS) and harvested in a 0.5% trypsin/EDTA solution at 37° C., centrifuged at 220×g for 5 min and then immediately resuspended in the physiological buffer provided in the kit. […] The results were quantified using the CellQuest software (BD Biosciences, San Jose, Calif.). Data are expressed as percent viable (non-apoptotic cells) with the number of cells seeded into each well used as 100%. Three independent experiments were performed.

[3] = as above; conditions: mouse, no cisplatin; for viability at 1 nM: NPD1 1 nM alone; for viability at 10 nM: NPD1 10 nM alone; for viability at 100 nM: NPD1 100 nM alone
Method: as §2

[4] = tested on: TRPV-1; assay: Immunofluorescence staining of stress and inflammatory markers: TRPV-1
Method: as §1

[5] = tested on: iNOS; assay: Immunofluorescence staining of stress and inflammatory markers: iNOS
Method: as §1

[6] = tested on: NOX3; assay: Immunofluorescence staining of stress and inflammatory markers: NOX3
Method: as §1

[7] = tested on: UB/OC-1 cells; assay: Cell viability by MTS assay (CellTiter 96 AQueous One Solution Cell Proliferation Assay), with and without cisplatin-induced damage; conditions: 24 hours
Method: In the examples described herein, UB/OC-1 cells, or immortalized organ of Corti cells derived from the mouse, were utilized to examine the activity of NPD1 in the context of ototoxic damage. […] The cultures were kept at 33° C. in an incubator with 10% CO2. […] In brief, 3,500 cells per well were seeded into a 96-well plate. […] NPD1 treatment of 1-100 nM concentrations was tested in 3 independent experiments. A cell proliferation assay was performed by using Cell-Titer 96® AQueous One Solution Cell Proliferation Assay Kit (Promega, Madison, Wis.), according to the manufacturer's instructions. After 24 hours, 20 μl of CellTiter 96 AQueous One Solution reagent was added to each well in 100 μl of total volume of media. Cells were incubated for 3 to 4 hours, and absorbance was recorded at 490 nm using an ELISA plate reader. The absorbance is directly proportional to the number of living cells and is expressed as a percent relative to vehicle-treated cells.

[8] = tested on: reactive oxygen species (ROS) in UB/OC-1 cells; assay: ROS generation by CellROX green staining, confocal imaging
Method: The cultures were kept at 33° C. in an incubator with 10% CO2. UB/OC1 cells were cultured on glass coverslips in 12-well culture plates. […] The cells were then washed once with phosphate buffered saline (PBS), and fixed in 4% paraformaldehyde for 15 minutes. The coverslips were then mounted with DAPI containing Vectashield (Vector Labs, Burlingame, Calif.).

[9] = NPD1 (1, 10, 100 nM; particularly at 10 nM) 30 minutes, then cisplatin 2.5 μM 24 hours
[10] = average of three experiments, read-out: Cell Viability Avg.
[11] = read-out: Set II Cell Viability
[12] = read-out: Set III Cell Viability
[13] = NPD1 at 1 nM, 10 nM and 100 nM 30 minutes, then cisplatin 2.5 μM 24 hours
[14] = cisplatin only 2.5 μM, 24 hours

With `CC/C=C\C[C@H](O)\C=C/C=C/C=C/[C@H](O)C/C=C\C/C=C\CCC(=O)[O-].[Na+]` [NPD1, Sodium (4Z,7Z,10R,11E,13E,15Z,17S,19Z)-10,17-dihydroxydocosa-4,7,11,13,15,19-hexaenoate] the “TNFα expression (staining)” value [1, 9] was “decrease”, the viability at 0.001 µM ([2]; read-out: Cell Viability Avg., NPD1 1 nM, 30 minutes later cisplatin 20 μM for 24 h, average of three experiments) was 87.6% and the viability at 0.01 µM ([2]; read-out: Cell Viability Avg., NPD1 10 nM, 30 minutes later cisplatin 20 μM for 24 h, average of three experiments) was 88.8%. It also gave a viability at 0.1 µM ([2]; read-out: Cell Viability Avg., NPD1 100 nM, 30 minutes later cisplatin 20 μM for 24 h, average of three experiments) of 89.2%, a viability at 0.001 µM ([2]; read-out: Set I Cell Viability, NPD1 1 nM, 30 minutes later cisplatin 20 μM for 24 h) of 85% and a viability at 0.01 µM ([2]; read-out: Set I Cell Viability, NPD1 10 nM, 30 minutes later cisplatin 20 μM for 24 h) of 84%. For the same compound, the viability at 0.1 µM ([2]; read-out: Set I Cell Viability, NPD1 100 nM, 30 minutes later cisplatin 20 μM for 24 h) was 90%, the viability at 0.001 µM ([2]; read-out: Set II Cell Viability, NPD1 1 nM, 30 minutes later cisplatin 20 μM for 24 h) was 83% and the viability at 0.01 µM ([2]; read-out: Set II Cell Viability, NPD1 10 nM, 30 minutes later cisplatin 20 μM for 24 h) was 86%. The viability at 0.1 µM ([2]; read-out: Set II Cell Viability, NPD1 100 nM, 30 minutes later cisplatin 20 μM for 24 h) was 80%, the viability at 0.001 µM ([2]; read-out: Set III Cell Viability, NPD1 1 nM, 30 minutes later cisplatin 20 μM for 24 h) was 94.9% and the viability at 0.01 µM ([2]; read-out: Set III Cell Viability, NPD1 10 nM, 30 minutes later cisplatin 20 μM for 24 h) was 96.5%. The viability at 0.1 µM ([2]; read-out: Set III Cell Viability, NPD1 100 nM, 30 minutes later cisplatin 20 μM for 24 h) was 97.6%, the cell survival ([2]; NPD1 treatment in cisplatin-induced damaged cells) was “over 96%” and the viability at 1 nM [3, 10] was 96.8%. It also gave a viability at 1 nM ([3]; read-out: Set I Cell Viability) of 96%, a viability at 1 nM [3, 11] of 96% and a viability at 1 nM [3, 12] of 98.5%. The viability at 10 nM [3, 10] was 96.9%, the viability at 10 nM ([3]; read-out: Set I Cell Viability) was 96% and the viability at 10 nM [3, 11] was 97%. It also gave a viability at 10 nM [3, 12] of 97.7%, a viability at 100 nM [3, 10] of 96.2% and a viability at 100 nM ([3]; read-out: Set I Cell Viability) of 91%. For the same compound, the viability at 100 nM [3, 11] was 98%, the viability at 100 nM [3, 12] was 99.5% and the “TRPV-1 expression (staining)” value [4, 9] was “decrease”. The “iNOS expression (staining)” value [5, 13] was “significant decrease”, the “NOX3 expression (staining)” value [6, 13] was “significant decrease” and the cell viability ([7]; NPD1 1 nM-100 nM with cisplatin 20 μM, percent relative to vehicle-treated cells) was “over 95%”. The cell viability ([7]; NPD1 at all tested concentrations (1 pM-100 nM) with cisplatin 20 μM, percent relative to vehicle-treated cells) was “over 80%”, the ROS staining ([8]; NPD1 1 nM and 10 nM pre-treatment 30 minutes, then cisplatin 2.5 μM 30 minutes) was “decreased ROS staining” and the ROS staining ([8]; NPD1 alone, no cisplatin) was “very little or no ROS staining”.
With `N.N.[Cl][Pt][Cl]` [cisplatin, reference compound] the TNFα staining [1, 14] was “increased staining”, the TRPV-1 staining [4, 14] was “increased staining” and the iNOS staining [5, 14] was “increased staining”. For the same compound, the NOX3 staining [6, 14] was “increased staining”, the cell viability ([7]; cisplatin 20 μM alone) was “reduced cell viability” and the ROS staining ([8]; cisplatin 2.5 μM alone, 30 minutes) was “ROS staining in the cytoplasm of the cell”.
